Data reported in patent US11654094B2, “Composition comprising benzoic acid amide compound and cyclodextrin solubilizing agent” (AMOREPACIFIC CORPORATION, priority 2017, dated 2023).
Values after ≈ are worked out from the molar mass of the structure shown. Read-outs that look alike come from different tables or passages of the source.

Assays:
melanin synthesis = settings: background statement; verified through cell and artificial skin tests; cited from earlier work
[1] = Amount of solubilizers needed to dissolve DBAB in water (synergy of cyclodextrin with other solubilizers); format: physicochemical; settings: for solubility of the composition: 0.1% by weight DBAB
Source text: The synergistic effect of cyclodextrin as a solubilizer of the present invention in combination with other solubilizers (a second solubilizer and a third solubilizer) was investigated.

MITF = settings: through the cAMP-PKA-CREB signal pathway; background statement; cited from earlier work
[2] = pH and solubility of HP-β-CD/DBAB compositions; format: physicochemical; settings: HP-β-CD and DBAB mixed at a weight ratio of 1:1
Source text: In addition to investigation of the solubility improvement with varying pH, the solubility of the composition was investigated with varying the pH of the composition and the weight ratio of HP-β-CD and DBAB as shown in Table 3 below.

[3] = Solubility of DBAB achieved by solvents; format: physicochemical; settings: organic solvent or mixture
[4] = Solubility of DBAB at various weight ratios of HP-β-CD and γ-CD, total CD 0.5%; settings: 0.2% by weight of each of HP-β-CD and γ-CD, test method of Table 5
Protocol: In this case, 10% by weight of PEG.PPG-17.6 copolymer, 0.1% by weight of DBAB, 39.4% by weight of propanediol, 50% by weight of water and 0.5% by weight of the total CD were used.
In addition, the test method of Table 5 was carried out by using 0.2% by weight of each of HP-β-CD and γ-CD with an addition of 0.1% by weight of HP-α-CD, HP-γ-CD, α-CD or β-CD.

[5] = Solubility of DBAB for each type of cyclodextrin and their 1:1 combinations (amount of CD required); format: physicochemical; settings: single cyclodextrin or 1:1 weight ratio combination
Protocol: In order to investigate the solubility of one part by weight of DBAB for each type of cyclodextrin and the synergistic effect between cyclodextrins, the solubility of each of α-CD, γ-CD, HP-α-CD, HP-β-CD and HP-γ-CD and the solubility of their 1:1 weight ratio combinations was determined, as shown in Table 4 below.

## COc1cc(OC)c(C23CC4CC(CC(C4)C2)C3)cc1C(=O)NCc1ccc(O)cc1O [DBAB, 5-adamantan-1-yl-N-(2,4-dihydroxybenzyl)-2,4-dimethoxy-benzoic acid amide]
Melanin synthesis
  melanin synthesis: inhibiting melanin synthesis
[1]; 30% by weight PEG.PPG-17.6 copolymer, 0.6% by weight HP-β-CD
  solubility of the composition: transparently dissolved
[1]; 50% by weight PEG.PPG-17.6 copolymer, balance water
  solubility of the composition: transparently dissolved
MITF
  expression of MITF: reduces the expression of MITF
[2]
  pH at which the composition has improved solubility: ≥ 12.72
[3]; PEG.PPG-17.6 copolymer, read-out: solubility of DBAB achieved by PEG.PPG-17.6 copolymer
  solubility: 81.3 mg/mL (≈ 186 mM)
[3]; propanediol, read-out: solubility of DBAB achieved by propanediol
  solubility: 5.92 mg/mL (≈ 13.5 mM)

## OC[C@H]1O[C@@H]2O[C@H]3[C@H](O)[C@@H](O)[C@@H](O[C@H]4[C@H](O)[C@@H](O)[C@@H](O[C@H]5[C@H](O)[C@@H](O)[C@@H](O[C@H]6[C@H](O)[C@@H](O)[C@@H](O[C@H]7[C@H](O)[C@@H](O)[C@@H](O[C@H]1[C@H](O)[C@H]2O)O[C@@H]7CO)O[C@@H]6CO)O[C@@H]5CO)O[C@@H]4CO)O[C@@H]3CO [α, α-cyclodextrin]
[4]
  effect on solubility of DBAB of adding 0.1% by weight of a further cyclodextrin: did not improve the solubility
[5]
  amount of CD required (weight ratio CD:DBAB, x:1) to transparently dissolve one part by weight of DBAB: >20

## OC[C@H]1O[C@@H]2O[C@H]3[C@H](O)[C@@H](O)[C@@H](O[C@H]4[C@H](O)[C@@H](O)[C@@H](O[C@H]5[C@H](O)[C@@H](O)[C@@H](O[C@H]6[C@H](O)[C@@H](O)[C@@H](O[C@H]7[C@H](O)[C@@H](O)[C@@H](O[C@H]8[C@H](O)[C@@H](O)[C@@H](O[C@H]1[C@H](O)[C@H]2O)O[C@@H]8CO)O[C@@H]7CO)O[C@@H]6CO)O[C@@H]5CO)O[C@@H]4CO)O[C@@H]3CO [β, β-cyclodextrin]
[4]
  effect on solubility of DBAB of adding 0.1% by weight of a further cyclodextrin: did not improve the solubility
[5]
  amount of CD required (weight ratio CD:DBAB, x:1) to transparently dissolve one part by weight of DBAB: >20

## hydroxypropyl-α-cyclodextrin [HPα]
[4]
  effect on solubility of DBAB of adding 0.1% by weight of a further cyclodextrin: did not improve the solubility
[5]
  amount of CD required (weight ratio CD:DBAB, x:1) to transparently dissolve one part by weight of DBAB: >20

## hydroxypropyl-β-cyclodextrin [HP-β-CD]
[1]; composition comprising DBAB
  PEG.PPG-17.6 copolymer replaced by 0.6% of HP-β-CD: 20%
[1]; composition with 0.1% by weight of DBAB
  PEG.PPG-17.6 copolymer replaced by 0.1% by weight of HP-β-CD: 20 % by weight
[5]
  amount of CD required (weight ratio CD:DBAB, x:1) to transparently dissolve one part by weight of DBAB: 20

## hydroxypropyl-γ-cyclodextrin [HPγ]
[5]
  amount of CD required (weight ratio CD:DBAB, x:1) to transparently dissolve one part by weight of DBAB: >20
